{
  "source": "patent US20080286370A1",
  "about": "“Nanoscale Particles Used as Contrasting Agents in Magnetic Resonance Imaging” (priority 2005, published 2008)",
  "origin": "cited, not measured here",
  "key": {"[1]": {"conditions": "human, in vivo"}, "[2]": {"conditions": "in vivo"}, "[3]": {"conditions": "copper or zinc"}},
  "data": [
    {"smiles": "O=C([O-])CN1CCN(CC(=O)[O-])CCN(CC(=O)O)CCN(CC(=O)[O-])CC1.[Gd+3]", "note": "[Gd-DOTA, gadoteric acid]", "values": [
      {"measurement": "adverse effect on vital parameters or renal function", "setting": "[1]", "result": "absolutely no adverse effect"},
      {"measurement": "patients who suffered from nausea", "setting": "[1]", "result": 8},
      {"measurement": "patients who suffered from vomiting", "setting": "[1]", "result": 5},
      {"measurement": "pseudohypocalcaemia", "setting": "[1]", "result": "has not caused pseudohypocalcaemia"},
      {"measurement": "side-effect rate", "setting": "[1]", "result": "0.84-0.97%"},
      {"measurement": "systemic osmolality effects", "setting": "[1]", "result": "negligible"},
      {"measurement": "temperature, headaches, an unwell feeling, skin rash and an unpleasant taste in the mouth", "setting": "[1]", "result": "less than 0.15%"},
      {"measurement": "total rate of nausea and vomiting", "setting": "[1]", "result": 0.31, "unit": "%"},
      {"measurement": "eliminated", "setting": "[2]", "result": 75, "unit": "%"},
      {"measurement": "passage through the blood/brain barrier", "setting": "[2]", "result": "do not pass through the blood/brain barrier"},
      {"measurement": "exchange of gadolinium with endogenic metal ions", "setting": "[3]", "result": "less than 1%"}
    ]}
  ]
}
